Earlier results as cited in US20080139497A1, “Use of ATP in controlled regional reperfusion as treatment during acute myocardial infarction” (priority 2006, published 2008).
Read-outs that look alike come from different tables or passages of the source.

Columns and labels:
[1] = system: cultured myocardial cells; details: addition to cultured myocardial cells
[2] = injected into isolated nonperfused hypothermic dog hearts
[3] = small amount, exogenously administered, hypoxic myocardium
isolated muscle fibers = details: externally added
[4] = infusion; after hemorrhagic shock, severe burns, sepsis-peritonitis, post-ischemic hepatic failure, endotoxin shock
[5] = after acute renal failure in rats
[6] = after acute renal failure in mini-pigs
[7] = added to the perfusate
[8] = from a toxic injury
[9] = following normothermic ischemia, infusion of low dose
[10] = following prolonged ischemia, infusion
[11] = in man
[12] = infused into left coronary artery, patients with coronary artery disease
[13] = treatment after experimental acute myocardial ischemia

Question: For Nc1ncnc2c1ncn2[C@@H]1O[C@H](CO)[C@@H](O)[C@H]1O [adenosine], which ATP content [1] is on record?
Answer: neither adenosine nor AMP produced this effect

Question: Which results are given for Nc1ncnc2c1ncn2[C@@H]1O[C@H](COP(=O)(O)OP(=O)(O)OP(=O)(O)O)[C@@H](O)[C@H]1O [ATP, adenosine 5′-triphosphate]?
Answer: nucleotide and phosphocreatine levels [2]: improved nucleotide and phosphocreatine levels; ATP and total adenine nucleotide content [3]: increased the ATP and total adenine nucleotide content; contraction (isolated muscle fibers): induced contraction; ATP content [1]: caused an increase in ATP content

Question: Which results are given for ATP-MgCl2?
Answer: survival of animals [4]: proved beneficial for the survival of animals; recovery of renal function [5]: accelerate the recovery of renal function; recovery of renal function [6]: accelerate the recovery of renal function; salvage of kidneys subjected to warm ischemia [7]: could be salvaged; renal recovery [8]: effective in hastening renal recovery; ornithine metabolism and tissue lactate level (during hemorrhagic shock, exogenously administered): can reverse the inhibition of ornithine metabolism and the change in tissue lactate level; tissue lactate production (infused): decreased tissue lactate production; myocardial recovery [9]: improved myocardial recovery; myocardial performance [10]: can improve myocardial performance; safety and hemodynamic response [11]: has been demonstrated; myocardial oxygen consumption [12]: reduction of myocardial oxygen consumption; protection of the heart from ischemia [13]: protects the heart from the adverse effects of ischemia

Question: Which “ATP and total adenine nucleotide content” value [3] does the source give for Nc1ncnc2c1ncn2[C@@H]1O[C@H](COP(=O)(O)O)[C@@H](O)[C@H]1O [AMP] here?
Answer: not

Question: And the ATP content [1]?
Answer: neither adenosine nor AMP produced this effect

Question: With Nc1ncnc2c1ncn2[C@@H]1O[C@H](COP(=O)(O)OP(=O)(O)O)[C@@H](O)[C@H]1O [ADP] as the compound, how does the “ATP and total adenine nucleotide content” value [3] read?
Answer: not
